Test results reported in the NIST ThermoML archive (doi:10.1016/j.fluid.2005.03.030).

Assay: xn = mol fraction of the nth substance listed
Settings: Liquid, Falling body viscometer

COCCOCCOCCOCCOC [2,5,8,11,14-pentaoxapentadecane] + FCC(F)(F)F
viscosity [mPa·s]
Settings | 10000 kPa | 20000 kPa | 30000 kPa | 40000 kPa | 50000 kPa | 60000 kPa | 70000 kPa | 80000 kPa | 90000 kPa | 100000 kPa
293.15 K, x2 = 0.2769 | 3.132 | 3.378 | 3.669 | 3.992 | 4.341 | 4.71 | 5.095 | 5.495 | 5.907 | 6.329
293.15 K, x2 = 0.4433 | 2.335 | 2.537 | 2.765 | 3.014 | 3.282 | 3.568 | 3.871 | 4.191 | 4.527 | 4.877
293.15 K, x2 = 0.6333 | 1.514 | 1.679 | 1.851 | 2.031 | 2.219 | 2.414 | 2.617 | 2.827 | 3.045 | 3.269
293.15 K, x2 = 0.8797 | 0.557 | 0.613 | 0.671 | 0.733 | 0.796 | 0.863 | 0.932 | 1.003 | 1.077 | 1.154
313.15 K, x2 = 0.2769 | 2.001 | 2.197 | 2.395 | 2.601 | 2.816 | 3.043 | 3.282 | 3.535 | 3.803 | 4.088
313.15 K, x2 = 0.4433 | 1.527 | 1.674 | 1.824 | 1.978 | 2.14 | 2.31 | 2.49 | 2.68 | 2.881 | 3.094
313.15 K, x2 = 0.6333 | 1.046 | 1.151 | 1.26 | 1.374 | 1.493 | 1.616 | 1.745 | 1.878 | 2.016 | 2.159
313.15 K, x2 = 0.8797 | 0.412 | 0.46 | 0.506 | 0.553 | 0.6 | 0.647 | 0.695 | 0.744 | 0.794 | 0.845
333.15 K, x2 = 0.2769 | 1.406 | 1.533 | 1.664 | 1.8 | 1.941 | 2.086 | 2.236 | 2.391 | 2.549 | 2.712
333.15 K, x2 = 0.4433 | 1.097 | 1.195 | 1.297 | 1.402 | 1.512 | 1.624 | 1.741 | 1.861 | 1.984 | 2.111
333.15 K, x2 = 0.6333 | 0.774 | 0.845 | 0.922 | 1.003 | 1.087 | 1.173 | 1.26 | 1.349 | 1.438 | 1.529
333.15 K, x2 = 0.8797 | 0.321 | 0.364 | 0.405 | 0.444 | 0.483 | 0.522 | 0.561 | 0.6 | 0.64 | 0.681
353.15 K, x2 = 0.2769 | 1.038 | 1.133 | 1.229 | 1.328 | 1.431 | 1.539 | 1.653 | 1.773 | 1.9 | 2.035
353.15 K, x2 = 0.4433 | 0.834 | 0.908 | 0.984 | 1.064 | 1.147 | 1.233 | 1.323 | 1.415 | 1.51 | 1.609
353.15 K, x2 = 0.6333 | 0.609 | 0.665 | 0.725 | 0.788 | 0.854 | 0.921 | 0.99 | 1.061 | 1.132 | 1.205
353.15 K, x2 = 0.8797 | 0.256 | 0.299 | 0.336 | 0.37 | 0.404 | 0.436 | 0.469 | 0.501 | 0.533 | 0.565
373.15 K, x2 = 0.2769 | 0.832 | 0.907 | 0.986 | 1.069 | 1.156 | 1.247 | 1.342 | 1.441 | 1.545 | 1.654
373.15 K, x2 = 0.4433 | 0.662 | 0.72 | 0.783 | 0.85 | 0.921 | 0.994 | 1.069 | 1.147 | 1.226 | 1.307
373.15 K, x2 = 0.6333 | 0.471 | 0.524 | 0.577 | 0.631 | 0.685 | 0.739 | 0.794 | 0.849 | 0.904 | 0.96
373.15 K, x2 = 0.8797 | 0.195 | 0.234 | 0.268 | 0.3 | 0.33 | 0.36 | 0.39 | 0.419 | 0.448 | 0.478
